Data on 28 compounds can be found in patent publication US8420633B2 (Hoffmann-La Roche Inc., priority 2010, dated 2013).

SMILES strings stand for the structures. Where a name gives a salt, the structure may show the parent alone. Read-outs that look alike come from different tables or passages of the source.

The target in the assay is T1, human V1a receptor (Homo sapiens, UniProt P37288).
T1 construct: expressed in transfected cells; host or cells: HEK293 cells, transiently transfected; membranes prepared
T1 sequence (P37288 whole entry): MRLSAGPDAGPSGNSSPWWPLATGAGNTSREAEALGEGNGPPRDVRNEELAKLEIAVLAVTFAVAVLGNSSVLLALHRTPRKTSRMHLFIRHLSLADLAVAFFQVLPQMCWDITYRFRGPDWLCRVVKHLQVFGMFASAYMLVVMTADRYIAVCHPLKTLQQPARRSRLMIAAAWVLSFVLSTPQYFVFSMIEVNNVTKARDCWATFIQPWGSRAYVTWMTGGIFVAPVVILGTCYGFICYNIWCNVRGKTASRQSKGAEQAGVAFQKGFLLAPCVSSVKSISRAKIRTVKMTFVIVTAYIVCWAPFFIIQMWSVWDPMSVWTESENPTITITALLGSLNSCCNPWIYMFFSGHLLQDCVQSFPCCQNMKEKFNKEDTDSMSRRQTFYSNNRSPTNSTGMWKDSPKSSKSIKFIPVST
Put plainly: human V1a receptor binding (3H-Vasopressin SPA, HEK293 membranes). The protocol:
The human V1a receptor was cloned by RT-PCR from total human liver RNA. The coding sequence was subcloned in an expression vector after sequencing to confirm the identity of the amplified sequence. […] Cell membranes were prepared from HEK293 cells transiently transfected with the expression vector and grown in 20 liter fermenters with the following protocol.
50 g of cells are resuspended in 30 ml freshly prepared ice cold Lysis buffer (50 mM HEPES, 1 mM EDTA, 10 mM magnesium dichloride adjusted to pH=7.4+complete cocktail of protease inhibitor (Roche Diagnostics)). Homogenized with Polytron for 1 min and sonicated on ice for 2×2 minutes at 80% intensity (Vibracell sonicator). The preparation is centrifuged 20 min at 500 g at 4° C., the pellet is discarded and the supernatant centrifuged 1 hour at 43,000 g at 4° C. (19,000 rpm). The pellet is resuspended in 12.5 ml Lysis buffer+12.5 ml sucrose 20% and homogenized using a Polytron for 1-2 min. The protein concentration is determined by the Bradford method and aliquots are stored at −80° C. until use. For binding studies 60 mg Yttrium silicate SPA beads (Amersham®) are mixed with an aliquot of membrane in binding buffer (50 mM Tris, 120 mM sodium chloride, 5 mM potassium chloride, 2 mM calcium dichloride, 10 mM magnesium dichloride) for 15 minutes with mixing. 50 μl of bead/membrane mixture is then added to each well of a 96 well plate, followed by 50 μl of 4 nM 3H-Vasopressin (American Radiolabeled Chemicals). For total binding measurement 100 μl of binding buffer are added to the respective wells, for non-specific binding 100 μl of 8.4 mM cold vasopressin and for compound testing 100 μl of a serial dilution of each compound in 2% dimethyl sulfoxide. The plate is incubated 1 h at room temperature, centrifuged 1 min at 1000 g and counted on a Packard Top-Count. Non-specific binding counts are subtracted from each well and data is normalized to the maximum specific binding set at 100%. To calculate an IC50 the curve is fitted using a non-linear regression model (XLfit) and the Ki is calculated using the Cheng-Prussoff equation.

The mark [1] stands for this setting: 3H-Vasopressin displacement, membranes of HEK293 cells transiently transfected with human V1a, Ki from IC50 by Cheng-Prussoff, read-out: pKi (hV1a) (converted).

In the case of `CC(C)(C)OC(=O)N1Cc2cc(Cl)ccc2-n2c(nnc2[C@H]2CC[C@H](c3ccccc3)CC2)C1` [Example 1, trans-8-Chloro-1-(4-phenyl-cyclohexyl)-4H,6H-2,3,5,10b-tetraaza-benzo[e]azulene-5-carboxylic acid tert-butyl ester], under setting [1], the Ki is 6.46 nM.

`Clc1ccc2c(c1)CNCc1nnc([C@H]3CC[C@H](c4ccccc4)CC3)n1-2` [Example 2, trans-8-Chloro-1-(4-phenyl-cyclohexyl)-5,6-dihydro-4H-2,3,5,10b-tetraaza-benzo[e]azulene hydrochloride]: under setting [1], the Ki was 2.09 nM.

In the case of `CN1Cc2cc(Cl)ccc2-n2c(nnc2[C@H]2CC[C@H](c3ccccc3)CC2)C1` [Example 3, trans-8-Chloro-5-methyl-1-(4-phenyl-cyclohexyl)-5,6-dihydro-4H-2,3,5,10b-tetraaza-benzo[e]azulene], the Ki was 0.794 nM.

For the compound `Cc1ccccc1[C@H]1CC[C@@H](c2nnc3n2-c2ccc(Cl)cc2CN(C)C3)CC1` [Example 4, cis-8-Chloro-5-methyl-1-(4-o-tolyl-cyclohexyl)-5,6-dihydro-4H-2,3,5,10b-tetraaza-benzo[e]azulene], the Ki under setting [1] is 16.2 nM.

Turning to `Cc1ccccc1[C@H]1CC[C@H](c2nnc3n2-c2ccc(Cl)cc2CN(C)C3)CC1` [Example 5, trans-8-Chloro-5-methyl-1-(4-o-tolyl-cyclohexyl)-5,6-dihydro-4H-2,3,5,10b-tetraaza-benzo[e]azulene], the Ki under setting [1] was 4.27 nM.

With `Cc1ccccc1[C@H]1CC[C@@H](c2nnc3n2-c2ccccc2CN(C)C3)CC1` [Example 6, cis-5-Methyl-1-(4-o-tolyl-cyclohexyl)-5,6-dihydro-4H-2,3,5,10b-tetraaza-benzo[e]azulene], the Ki under setting [1] is 339 nM.

In the case of `CC(C)(C)OC(=O)N1Cc2cc(Cl)ccc2-n2c(nnc2[C@H]2CC[C@@H](c3ccc(F)cc3)CC2)C1` [Example 7], the Ki under setting [1] was 52.5 nM.

For `Fc1ccc([C@H]2CC[C@@H](c3nnc4n3-c3ccc(Cl)cc3CNC4)CC2)cc1` [Example 8, cis-8-Chloro-1-[4-(4-fluoro-phenyl)-cyclohexyl]-5,6-dihydro-4H-2,3,5,10b-tetraaza-benzo[e]azulene hydrochloride], under setting [1], the Ki was 302 nM.

With `CN1Cc2cc(Cl)ccc2-n2c(nnc2[C@H]2CC[C@@H](c3ccc(F)cc3)CC2)C1` [Example 9, cis-8-Chloro-1-[4-(4-fluoro-phenyl)-cyclohexyl]-5-methyl-5,6-dihydro-4H-2,3,5,10b-tetraaza-benzo[e]azulene], the Ki under setting [1] is 30.2 nM.

As for `CC(C)(C)OC(=O)N1Cc2cc(Cl)ccc2-n2c(nnc2[C@H]2CC[C@H](c3ccc(F)cc3)CC2)C1` [Example 10], under setting [1], the Ki is 4.68 nM.

`Fc1ccc([C@H]2CC[C@H](c3nnc4n3-c3ccc(Cl)cc3CNC4)CC2)cc1` [Example 11, trans-8-Chloro-1-[4-(4-fluoro-phenyl)-cyclohexyl]-5,6-dihydro-4H-2,3,5,10b-tetraaza-benzo[e]azulene hydrochloride]: the Ki under setting [1] was 6.31 nM.

With `CN1Cc2cc(Cl)ccc2-n2c(nnc2[C@H]2CC[C@H](c3ccc(F)cc3)CC2)C1` [Example 12, trans-8-Chloro-1-[4-(4-fluoro-phenyl)-cyclohexyl]-5-methyl-5,6-dihydro-4H-2,3,5,10b-tetraaza-benzo[e]azulene], the Ki under setting [1] is 2.19 nM.

For the compound `CC(C)(C)OC(=O)N1Cc2cc(Cl)ccc2-n2c(nnc2[C@H]2CC[C@H](c3cccc(OC(F)(F)F)c3)CC2)C1` [Example 13, trans-8-Chloro-1-[4-(3-trifluoromethoxy-phenyl)-cyclohexyl]-4H,6H-2,3,5,10b-tetraaza-benzo[e]azulene-5-carboxylic acid tert-butyl ester], the Ki under setting [1] was 18.2 nM.

As for `FC(F)(F)Oc1cccc([C@H]2CC[C@H](c3nnc4n3-c3ccc(Cl)cc3CNC4)CC2)c1` [Example 14, trans-8-Chloro-1-[4-(3-trifluoromethoxy-phenyl)-cyclohexyl]-5,6-dihydro-4H-2,3,5,10b-tetraaza-benzo[e]azulene hydrochloride], the Ki under setting [1] is 57.5 nM.

Take `CN1Cc2cc(Cl)ccc2-n2c(nnc2[C@H]2CC[C@H](c3cccc(OC(F)(F)F)c3)CC2)C1` [Example 15, trans-8-Chloro-5-methyl-1-[4-(3-trifluoromethoxy-phenyl)-cyclohexyl]-5,6-dihydro-4H-2,3,5,10b-tetraaza-benzo[e]azulene]: the Ki under setting [1] was 10.2 nM.

For the compound `CC(C)(C)OC(=O)N1Cc2cc(Cl)ccc2-n2c(nnc2[C@H]2CC[C@H](c3cccc(F)c3Cl)CC2)C1` [Example 16, trans-8-Chloro-1-[4-(2-chloro-3-fluoro-phenyl)-cyclohexyl]-4H,6H-2,3,5,10b-tetraaza-benzo[e]azulene-5-carboxylic acid tert-butyl ester], the Ki under setting [1] was 4.17 nM.

Turning to `Fc1cccc([C@H]2CC[C@H](c3nnc4n3-c3ccc(Cl)cc3CNC4)CC2)c1Cl` [Example 17, trans-8-Chloro-1-[4-(2-chloro-3-fluoro-phenyl)-cyclohexyl]-5,6-dihydro-4H-2,3,5,10b-tetraaza-benzo[e]azulene hydrochloride], under setting [1], the Ki was 15.1 nM.

In the case of `CN1Cc2cc(Cl)ccc2-n2c(nnc2[C@H]2CC[C@H](c3cccc(F)c3Cl)CC2)C1` [Example 18, trans-8-Chloro-1-[4-(2-chloro-3-fluoro-phenyl)-cyclohexyl]-5-methyl-5,6-dihydro-4H-2,3,5,10b-tetraaza-benzo[e]azulene], the Ki under setting [1] is 3.09 nM.

Compound `CC(C)(C)OC(=O)N1Cc2cc(Cl)ccc2-n2c(nnc2[C@H]2CC[C@H](c3cccc4ccccc43)CC2)C1` [Example 19, trans-8-Chloro-1-(4-naphthalen-1-yl-cyclohexyl)-4H,6H-2,3,5,10b-tetraaza-benzo[e]azulene-5-carboxylic acid tert-butyl ester] had a Ki of 6.03 nM.

For `Clc1ccc2c(c1)CNCc1nnc([C@H]3CC[C@H](c4cccc5ccccc54)CC3)n1-2` [Example 20, trans-8-Chloro-1-(4-naphthalen-1-yl-cyclohexyl)-5,6-dihydro-4H-2,3,5,10b-tetraaza-benzo[e]azulene hydrochloride], under setting [1], the Ki is 20.4 nM.

As to `CN1Cc2cc(Cl)ccc2-n2c(nnc2[C@H]2CC[C@H](c3cccc4ccccc43)CC2)C1` [Example 21, trans-8-Chloro-5-methyl-1-(4-naphthalen-1-yl-cyclohexyl)-5,6-dihydro-4H-2,3,5,10b-tetraaza-benzo[e]azulene], the Ki under setting [1] is 7.59 nM.

As for `COc1ccc(F)cc1[C@H]1CC[C@H](c2nnc3n2-c2ccc(Cl)cc2CN(C(=O)OC(C)(C)C)C3)CC1` [Example 22, trans-8-Chloro-1-[4-(5-fluoro-2-methoxy-phenyl)-cyclohexyl]-4H,6H-2,3,5,10b-tetraaza-benzo[e]azulene-5-carboxylic acid tert-butyl ester], the Ki under setting [1] was 11.2 nM.

Take `COc1ccc(F)cc1[C@H]1CC[C@H](c2nnc3n2-c2ccc(Cl)cc2CNC3)CC1` [Example 23, trans-8-Chloro-1-[4-(5-fluoro-2-methoxy-phenyl)-cyclohexyl]-5,6-dihydro-4H-2,3,5,10b-tetraaza-benzo[e]azulene hydrochloride]: the Ki under setting [1] is 42.7 nM.

`COc1ccc(F)cc1[C@H]1CC[C@H](c2nnc3n2-c2ccc(Cl)cc2CN(C)C3)CC1` [Example 24, trans-8-Chloro-1-[4-(5-fluoro-2-methoxy-phenyl)-cyclohexyl]-5-methyl-5,6-dihydro-4H-2,3,5,10b-tetraaza-benzo[e]azulene]: under setting [1], the Ki is 5.75 nM.

On to `CC(C)(C)OC(=O)N1Cc2cc(Cl)ccc2-n2c(nnc2[C@H]2CC[C@H](c3cccc(C#N)c3)CC2)C1` [Example 25, trans-8-Chloro-1-[4-(3-cyano-phenyl)-cyclohexyl]-4H,6H-2,3,5,10b-tetraaza-benzo[e]azulene-5-carboxylic acid tert-butyl ester], for which the Ki is 7.08 nM.

For the compound `N#Cc1cccc([C@H]2CC[C@H](c3nnc4n3-c3ccc(Cl)cc3CNC4)CC2)c1` [Example 26, trans-3-[4-(8-Chloro-5,6-dihydro-4H-2,3,5,10b-tetraaza-benzo[e]azulen-1-yl)-cyclohexyl]-benzonitrile hydrochloride], the Ki under setting [1] was 32.4 nM.

With `CN1Cc2cc(Cl)ccc2-n2c(nnc2[C@H]2CC[C@H](c3cccc(C#N)c3)CC2)C1` [Example 27, trans-3-[4-(8-Chloro-5-methyl-5,6-dihydro-4H-2,3,5,10b-tetraaza-benzo[e]azulen-1-yl)-cyclohexyl]-benzonitrile], the Ki under setting [1] was 2.69 nM.

For the compound `CC(=O)N1Cc2cc(Cl)ccc2-n2c(nnc2[C@H]2CC[C@H](c3ccccc3)CC2)C1` [Example 28, trans-1-[8-Chloro-1-(4-phenyl-cyclohexyl)-4H,6H-2,3,5,10b-tetraaza-benzo[e]azulen-5-yl]-ethanone], under setting [1], the Ki was 1.29 nM.
